Reference: US12419857B2, “Oral topiramate suspension formulations with extended shelf stability and enhanced bioavailability” (Rosemont Pharmaceuticals Limited, priority 2018, dated 2025)
Values after ≈ are worked out from the molar mass of the structure shown. Read-outs that look alike come from different tables or passages of the source.

How the values were obtained:
[1] = Solubility of topiramate in water and non-aqueous reagents; format: physicochemical; conditions: for solubility: water
Excerpt: The present application discloses the first example of an aqueous suspension of topiramate with extended physicochemical stability and therapeutic bioavailability equivalent to that of commercially approved solid dose formulations. […] See, Physician's Desk Reference, 56th ed., pp. 2590-2595 (2002). Topiramate may be produced according to the processes disclosed in U.S. Pat. Nos. 4,513,006 and 5,387,700, the entire contents of which are herein incorporated by reference. Topiramate is sold in the United States under the trade name TOPAMAX® (Ortho-McNeil Pharmaceutical, Inc., Raritan, N.J., U.S.A). TOPAMAX® has been approved for use as an antiepileptic agent as an adjuvant therapy for patients with partial onset seizures, or primary generalized tonic-clonic seizures. See generally, Physician's Desk Reference, 56th ed., 2590-2595 (2002); see also, U.S. Pat. No. 4,513,006.
For drugs with low solubility and/or bioavailability at physiological pH and temperature, efforts to develop suspension formulations are often met with varying rates of success due to restrictive physiochemical parameters of the API and/or excipients. For example, while simply increasing the volume of diluent for low-solubility drugs may improve solubility, the large volume of diluent is often prohibitive from a patient perspective.
From a purely chemical perspective, topiramate is highly sensitive to heat (e.g., room temperature) and humidity (e.g., aqueous environment of liquid formulations). For example, abandoned U.S. Pat. App. No. 2006/0270611 discloses that topiramate is highly sensitive to hydrolysis in an aqueous medium and that any conventional aqueous oral solution would have a very limited shelf life. The chemical instability of topiramate is so well known, that pharmacists routinely monitor topiramate degradation by a change in physical appearance (e.g., tablet color changing from white to brown) and by an emergence of chemical breakdown byproducts (e.g., formation of sulfamate and sulphate ions and organic degradation compounds readily detected by HPLC). […]

[2] = Dissolution testing (paddles 58 RPM) at three pH levels vs TOPAMAX 200 mg Tablets; format: physicochemical; conditions: once the suspension matrix has degraded
Description: Two issues were observed during the dissolution testing of the oral topiramate suspension: (i) the suspension produces very poor inter-vessel reproducibility with very large error values up until near dissolution completion and (ii) when comparing the reference tablet formulation with the suspensions very poor comparison is seen as the tablets tend to complete dissolution at a much faster rate. It was determined that both of these issues are caused by the physiochemical characteristics of the topiramate suspension vehicle and the release of the active ingredient from the suspension matrix. Once the suspension matrix is broken down, the topiramate becomes readily bioavailable. […] Changes in the physical nature of the product can also be detected with this novel testing approach.
Process validation batches were manufactured using the final production equipment and facility to cGMP and compared to a reference product (TOPAMAX® 200 mg Tablets) using dissolution (paddles 58 RPM) at three pH levels (i.e., 1.2, 4.5 and 6.8). FIG. 7. […] Thus, data support the claim that the disclosed 10 mg/ml and 20 mg/ml oral liquid topiramate suspension products are bioequivalent to the reference product TOPAMAX® 200 mg tablets (Janssen Cilag, Ltd.).

[3] = acetone, chloroform, dimethylsulfoxide, ethanol; cited from earlier work

solubility ([1]; purified water, 25 °C, 25 degrees Celsius, read-out: observed solubility in purified water): 8300 µg/mL (≈ 24.5 mM) | pH of maximum aqueous solubility ([1]; strongly alkaline solutions): ~9.5 pH | solubility ([1]; 5 °C, 5 degrees Celsius, read-out: observed solubility in water): 6400 µg/mL (≈ 18.9 mM) | BCS class [2]: BCS Class I or III
SMILES: CC1(C)O[C@@H]2[C@@H](CO[C@@]3(COS(N)(=O)=O)OC(C)(C)O[C@@H]23)O1 [topiramate, 2,3:4,5-Bis-O-(1-methylethylidene)- -D-fructopyranose sulfamate]
solubility in non-aqueous reagents [3]: freely soluble
